# From article PMC8802628, “Selective activation of PFKL suppresses the phagocytic oxidative burst” (Cell, 2021)
# How the values were obtained:
# [1] = target: T1, PFKL (K315R, V545L, and V582M), PFKL3Mut (Homo sapiens, UniProt P17858, K315R/V545L/V582M); assay: Recombinant PFKL3Mut activity assay; type: biochemical; details: for activation of PFKL3Mut: 3.1 mM ATP, 1.5 mM F6P
# T1 construct: made in house; host or cells: Sf9 insect cells (baculovirus)
# T1 sequence (P17858 1-780 K315R/V545L/V582M): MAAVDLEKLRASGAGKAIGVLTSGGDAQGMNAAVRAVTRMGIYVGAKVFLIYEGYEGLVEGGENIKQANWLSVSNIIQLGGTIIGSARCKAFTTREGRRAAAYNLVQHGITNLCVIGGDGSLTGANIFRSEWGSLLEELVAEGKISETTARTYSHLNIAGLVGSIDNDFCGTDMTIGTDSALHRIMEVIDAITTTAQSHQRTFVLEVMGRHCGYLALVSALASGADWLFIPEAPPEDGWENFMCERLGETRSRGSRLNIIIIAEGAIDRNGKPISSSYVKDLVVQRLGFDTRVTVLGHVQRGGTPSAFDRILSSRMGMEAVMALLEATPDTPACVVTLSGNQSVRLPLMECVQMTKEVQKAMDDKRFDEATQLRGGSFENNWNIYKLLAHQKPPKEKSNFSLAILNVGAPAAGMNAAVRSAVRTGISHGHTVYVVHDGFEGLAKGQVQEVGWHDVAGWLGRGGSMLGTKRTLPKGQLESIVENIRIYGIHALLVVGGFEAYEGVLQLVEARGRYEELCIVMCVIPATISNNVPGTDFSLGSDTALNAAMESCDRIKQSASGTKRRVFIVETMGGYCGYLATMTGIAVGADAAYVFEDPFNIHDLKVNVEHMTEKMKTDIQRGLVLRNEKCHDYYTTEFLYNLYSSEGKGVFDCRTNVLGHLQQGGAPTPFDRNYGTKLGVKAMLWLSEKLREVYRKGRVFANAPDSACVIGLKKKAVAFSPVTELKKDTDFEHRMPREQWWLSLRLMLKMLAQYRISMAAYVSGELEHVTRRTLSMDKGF
# Excerpt: (§1) Recombinant N-terminal His-tagged human PFKL (NP_002617), PFKM (NP_000280), and PFKP (NM_002627.4) were generated as described ([Webb et al., 2015], [2017]). Point mutants of PFK1 were generated using the QuikChange Lightning kit (Aligent).
# (§2) His-tagged PFK1 was expressed and purified as described with slight modifications ([Webb et al., 2015], [2017]). Briefly, baculovirus was generated using the Bac-to-Bac Expression system (Invitrogen). PFK1 was expressed in 2-5 × 10^6 sf9 cells at a multiplicity of infection of two for 48 h. Cells were lysed in 20 mM HEPES, pH 7.5, 80 mM potassium phosphate, 1 mM 2-mercapentoethanol, 10% glycerol, 10 mM imidazole, and EDTA-free Protease Inhibitor Cocktail (Abcam) with a Dounce homogenizer. The soluble lysate was incubated with HisPur cobalt resin (ThermoFisher Scientific). The resin was washed with 5 bead volumes lysis buffer, 10 bead volumes lysis buffer containing 2 M NaCl, and 5 further bead volumes lysis buffer. PFK1 was eluted in lysis buffer containing 100 mM imidazole. Fractions containing protein were pooled, passed over a desalting column equilibrated in freezing buffer [20 mM HEPES pH 7.5, 1 mM DTT, 500 μM ammonium sulfate, 5% glycerol, 1 mM ATP, and 100 μM EDTA] and concentrated using an Amicon Ultracel-30K Centrifugal Filter Unit (MilliporeSigma). Protein was quantified using a Bradford Protein Assay kit (ThermoFisher Scientific), and aliquotes frozen in liquid nitrogen for storage at −80°C.
# (§3) PFK1 activity was determined using the rate of FBP production via an auxiliary enzyme assay adapted to a 96-well format ([Brüser et al., 2012]; [Webb et al., 2015]). The auxiliary enzymes aldolase, triosephosphate isomerase, and glycerol phosphate dehydrogenase were purchased from MilliporeSigma as ammonium sulfate slurries and desalted using an Amicon Ultracel-10K Centrifugal Filter Unit. For assays containing FBP, the rate of ADP production was determined using the auxiliary enzymes pyruvate kinase (PK) and lactate dehydrogenase (LDH) (MilliporeSigma) in a buffer containing 250 μM phosphoenolpyruvic acid, […] NADH, 50 mM HEPES pH 7.5, 100 mM KCl, 1 mM DTT, and effector concentrations as described in the text. The temperature was equilibrated to 25°C for 5 min before initiating the reaction 10 mM MgCl2. Absorbance at 340 nm was measured using a Varioskan LUX Multimode microplate reader (ThermoFisher). Kinetic parameters were generated by nonlinear regression analysis using Prism (GraphPad Software) and are the mean of a minimum of three measurements from two independent preparations of protein. One unit of activity was defined as the amount of enzyme that catalyzed the formation of 1 μmol of fructose 1,6-bisphosphate per min at 25°C. Assays for PFKM were performed at pH 7.0 due to the pH-dependence of ATP inhibition ([Trivedi and Danforth, 1966]).
# [2] = target: T2, PFKM+pocket (R315 to lysine) (Homo sapiens, UniProt P08237, R315K); assay: Recombinant PFKM+pocket activity assay; type: biochemical
# T2 construct: made in house; host or cells: Sf9 insect cells (baculovirus)
# T2 sequence (P08237 1-780 R315K): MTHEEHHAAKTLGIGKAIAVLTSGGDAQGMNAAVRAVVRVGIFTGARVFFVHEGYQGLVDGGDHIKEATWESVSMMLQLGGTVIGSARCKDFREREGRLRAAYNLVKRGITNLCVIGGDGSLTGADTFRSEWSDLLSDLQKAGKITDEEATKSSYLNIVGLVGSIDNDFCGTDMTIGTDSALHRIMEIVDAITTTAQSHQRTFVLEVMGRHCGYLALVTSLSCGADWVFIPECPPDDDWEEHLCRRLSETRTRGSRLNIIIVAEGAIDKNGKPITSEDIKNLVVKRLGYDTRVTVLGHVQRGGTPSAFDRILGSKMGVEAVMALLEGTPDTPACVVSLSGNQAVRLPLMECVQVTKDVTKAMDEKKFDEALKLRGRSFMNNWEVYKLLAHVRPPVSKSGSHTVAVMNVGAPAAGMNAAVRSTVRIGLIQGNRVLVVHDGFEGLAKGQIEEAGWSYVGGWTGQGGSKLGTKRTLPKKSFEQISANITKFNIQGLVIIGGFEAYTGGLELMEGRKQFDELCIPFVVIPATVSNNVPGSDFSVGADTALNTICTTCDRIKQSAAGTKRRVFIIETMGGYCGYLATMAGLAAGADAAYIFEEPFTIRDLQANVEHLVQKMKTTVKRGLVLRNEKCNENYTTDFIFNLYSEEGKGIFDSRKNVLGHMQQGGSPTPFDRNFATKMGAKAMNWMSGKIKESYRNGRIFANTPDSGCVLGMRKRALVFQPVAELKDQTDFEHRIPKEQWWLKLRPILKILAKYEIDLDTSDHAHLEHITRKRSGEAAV
# Excerpt: as §1, §2
# as §3, with “Assays for PFKM were performed at pH 7.0 due to the pH-dependence of ATP inhibition ([Trivedi and Danforth, 1966]).” left out
# [3] = test system: human peripheral blood neutrophils; assay: NETosis assay in human neutrophils (SYTOX Green, DNA area); type: cell-based
# [4] = PFKM+pocket, pH 7.0, 250 μM ATP
smiles,measurement,setting,value
"O=C(CO)[C@@H](O)[C@H](O)[C@H](O)COP(=O)(O)O [F6P, fructose 6-phosphate]","Vmax,F6P","[1]; PFKL3Mut, pH 7.5, 225 μM ATP",17.36 ± 0.87 micromoles FBP per minute per milligram PFK1
same,hF6P (Hill coefficient),"[1]; PFKL3Mut, pH 7.5, 225 μM ATP",3.07 ± 0.87
same,"Vmax,F6P",[2]; [4],17.29 ± 0.93 micromoles FBP per minute per milligram PFK1
same,hF6P (Hill coefficient),[2]; [4],3.64 ± 0.69
"COc1ccccc1-c1cc2n(n1)Cc1ccc(NC(C)=O)cc1OC2 [LDC7559, reference compound]",NETosis in response to PMA,"[3]; 10 μM compound, compared with DMSO vehicle",defective NETosis
CC(=O)Nc1ccc2c(c1)OCc1cc(-c3ccccc3)nn1C2 [NA-5],EC50,"[2]; pH 7.0, 4.0 mM ATP, 1.0 mM F6P, mean ± SEM, read-out: EC50, activation of PFKM+pocket",10.9 ± 1.28 nM
CC(=O)Nc1ccc2c(c1)OCc1cc(-c3ccccc3C#CCCCO)nn1C2 [NA-11],activation of PFKL3Mut,[1]; at 200 nM,no activation observed
same,activation of PFKL3Mut,[1]; at 1 μM,only partial activation observed
same,time of addition after PMA up to which NETosis was inhibited,[3]; compound added after PMA-induced activation,up to 1 h
